Assay results published in ChEMBL document CHEMBL1201862, “PubChem BioAssay data set” (2004).
Activity calls are given as the source filed them.

Assays:
Nonstructural protein 1 = Nonstructural protein 1 (Influenza A virus, UniProt Q194T2); assay type: functional, Influenza A virus (A/California/07/2009(H1N1))
[1] = growth inhibition of yeast DHODH-expressing 3D7 parasites – SYBR Green, dry powder samples, dose response (AID 1159570); assay type: functional, cell-based;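 further: parasite growth measured after 72 hours of compound exposure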
[2] = toxicity to human HepG2 hepatoma cells – cell-based, plate reader, dry powder samples, cytotoxicity control, dose response (AID 1159569); assay type: functional;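 further: inhibitor potency with signal falling toward the positive control level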
[3] = P. falciparum Dd2 growth inhibitors, dose response, SYBR Green, cherry-picked samples (AID 1159567); assay type: functional, cell-based
[4] = Dd2 malaria parasite growth inhibition potency – SYBR Green, dry powder samples, dose response (AID 1159566); assay type: functional, cell-based;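 further: potency for growth inhibition with lower SYBR green DNA signal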
[5] = growth inhibition of PfATP4-mutant resistant parasites – NITD609-resistant line, SYBR Green, dry powder, dose response (AID 1159571); assay type: functional, cell-based;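 further: parasites synchronized at ring stage by sorbitol before testing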

Chain of Nonstructural protein 1 (Q194T2 whole entry): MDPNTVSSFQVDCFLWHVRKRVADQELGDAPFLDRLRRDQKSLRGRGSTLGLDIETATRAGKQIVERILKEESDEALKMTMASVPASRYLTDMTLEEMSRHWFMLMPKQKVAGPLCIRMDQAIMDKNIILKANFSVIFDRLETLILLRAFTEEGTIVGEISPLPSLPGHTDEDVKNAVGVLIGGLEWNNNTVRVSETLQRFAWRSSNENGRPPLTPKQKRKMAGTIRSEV

Row | SMILES | IC50 (Nonstructural protein 1) | AC50 [1] | AC50 [2] | AC50 [3] | AC50 [4] | AC50 [5]
1 | CCCCNc1c([N+](=O)[O-])ccc2c1=NC1(CCCCC1)[N+]=2[O-] | 43.8 µM (active) |  |  |  |  | 
2 | Cc1[nH]n(-c2ccccc2)c(=O)c1N=Nc1ccc(F)cc1 | 84.7 µM (active) |  |  |  |  | 
3 | CC(C)(C)[S@@+]([O-])N1Cc2cc(C(=O)NCCN3CCCCC3)nc(-c3cccc(-c4ccc(C#N)cc4)c3)c2[C@H]1CCO |  | 3.54 µM (active) | 63.2 µM (active) | 2.79 µM (active) | 2.37 µM (active) | 2.9 µM (active)
4 | C[C@@H]1CN([C@@H](C)CO)S(=O)(=O)c2ccc(/C=C/c3ccccc3)cc2O[C@H]1CN(C)Cc1cccnc1 |  | 1.6 µM (active) | 56.2 µM (active) | 1.93 µM (active) | 1.63 µM (active) | 2.15 µM (active)
5 | OC[C@@H]1CC[C@@H]2O[C@H](CCc3ccc(-c4ccccc4)cc3)[C@H](n3cc(-c4ccccc4)nn3)C[C@@H]2O1 |  | 1.38 µM (active) | > 100 µM (inactive) | 1.34 µM (active) | 0.555 µM (active) | 0.885 µM (active)
6 | C/C=C/c1ccc2c(c1)[C@H]1[C@H](CCN1C(=O)c1cccc(F)c1)[C@H](CO)N2 |  | 1.46 µM (active) | > 100 µM (inactive) | 1.54 µM (active) | 1.05 µM (active) | 1.64 µM (active)
